According to article PMC10038035 (Journal of Enzyme Inhibition and Medicinal Chemistry, 2023):
Like-named read-outs stand apart in the source and are kept apart here.

Tests used:
[1] = biological target: T1, prion protein (recombinant mouse PrP, recPrP) (Mus musculus, UniProt P04925); test: biochemical
T1 construct: gene Prnp

[2] = biological target: T1, prion protein (recombinant mouse PrP, recPrP); test: biochemical; remark: listed apart in the source
[3] = biological target: T1, prion protein (recombinant mouse PrP, recPrP); assay type: biochemical

T1 sequence (P04925 23-231 limits assumed): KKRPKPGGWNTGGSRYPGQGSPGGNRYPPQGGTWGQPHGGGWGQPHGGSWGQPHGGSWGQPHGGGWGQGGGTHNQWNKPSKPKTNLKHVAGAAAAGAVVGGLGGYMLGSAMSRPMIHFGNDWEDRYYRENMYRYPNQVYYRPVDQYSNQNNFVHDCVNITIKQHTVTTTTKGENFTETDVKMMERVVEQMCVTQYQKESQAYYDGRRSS

`CCOc1cc(C(=O)NNC(=S)Nc2ccc(Cl)cc2)c(O)c2ccccc12` [7y] gave an EC50 [1] of 5 µM.
`O=C(NNC(=S)Nc1ccc(Cl)cc1)c1cc2cccc(O)c2cc1O` [7x] was tested, and the EC50 [2] was 4.6 µM.
`Cc1cc(Nc2ccc(NC(=O)c3ccc(Nc4ccnc5ccccc45)cc3)cc2)nc(N)n1` [SGI-1027] was tested, and the “PrP aggregate formation assay (ThT fluorescence) with purified recPrP, single co” value [3] was “The anti-PrP aggregation activity of 7x and 7y was further compared to that of SGI-1027 (a positive control)”.
